How the values were obtained:
HCV replicon = HCV replicon assay (FRET / luciferase reporter); assay type: cell-based, HCV (HUH-7 cells); conditions: Hepatitis C virus; HCV replicon cells
Source text: FRET Assay Preparation. To perform the HCV FRET screening assay, 96-well cell culture plates were used. The FRET peptide (Anaspec, Inc.) (Taliani et al., Anal. Biochem. 1996, 240, 60-67) contains a fluorescence donor, EDANS, near one end of the peptide and an acceptor, DABCYL, near the other end. The fluorescence of the peptide is quenched by […] resonance energy transfer (RET) between the donor and the acceptor, but as the NS3 protease cleaves the peptide the products are released from RET quenching and the fluorescence of the donor becomes apparent. The assay reagent was made as follows: 5× cell Luciferase cell culture lysis reagent from Promega (#E153A) diluted to 1× with dH2O, NaCl added to 150 mM final, the FRET peptide diluted to 20 μM final from a 2 mM stock.
To prepare plates, HCV replicon cells, with or without a Renilla luciferase reporter gene, were trypsinized and placed into each well of a 96-well plate with titrated test compounds added in columns 3 through 12; columns 1 and 2 contained a control compound (HCV protease inhibitor), and the bottom row contained cells without compound. The plates were then placed in a CO2 incubator at 37° C.
Assays. Subsequent to addition of the test compounds described above (FRET Assay Preparation), at various times the plate was removed and Alamar blue solution (Trek Diagnostics, #00-100) was added per well as a measure of cellular toxicity. After reading in a Cytoflour 4000 instrument (PE Biosystems), plates were rinsed with PBS and then used for FRET assay by the addition of 30 ul of the FRET peptide assay reagent described above (FRET Assay Preparation) per well. The plate was then placed into the Cytoflour 4000 instrument which had been set to 340 excite/490 emission, automatic mode for 20 cycles and the plate read in a kinetic mode. Typically, the signal to noise using an endpoint analysis after the reads was at least three-fold. Alternatively, after Alamar blue reading, plates were rinsed with PBS, 50 ul of DMEM (high glucose) without phenol red was added and plates were then used for luciferase assay using the Promega Dual-Glo Luciferase Assay System.
Compound analysis was determined by quantification of the relative HCV replicon inhibition and the relative cytotoxicity values. To calculate cytoxicity values, the average Alamar Blue fluorescence signals from the control wells were set as 100% non-toxic. The individual signals in each of the compound test wells were then divided by the average control signal and multiplied by 100% to determine […]. To calculate the HCV replicon inhibition values, an average background value was obtained from the two wells containing the highest amount of HCV protease inhibitor at the end of the assay period. These numbers were similar to those obtained from naïve Huh-7 cells.
The background numbers were then subtracted from the average signal obtained from the control wells and this number was used as 100% activity. The individual signals in each of the compound test wells were then divided by the averaged control values after background subtraction and multiplied by 100% to determine percent activity. EC50 values for a protease inhibitor titration were calculated as the concentration which caused a 50% reduction in FRET or luciferase activity. The two numbers generated for the compound plate, percent cytoxicity and percent activity were used to determine compounds of interest for further analysis.
The HCV replicon luciferase assay was developed to monitor the inhibitory effects of compounds described in the disclosure on HCV viral replication. Utilization of a replicon luciferase reporter assay was first described by Krieger et al (Krieger N, Lohmann V, and Bartenschlager R, J. Virol. 75(10):4614-4624 (2001)). HUH-7 cells, constitutively expressing the HCV replicon, were grown in Dulbecco's Modified Eagle Media (DMEM) (Gibco-BRL) containing 10% Fetal calf serum (FCS) (Sigma) and 1 mg/ml G418 (Gibco-BRL). […]

HCV NS5B = biological target: T1, HCV NS5B (Hepatitis C virus genotype 1b, UniProt Q9WMX2); experiment: HCV NS5B RdRp enzyme assay; assay type: biochemical; conditions: HCV NS5B RdRp genotype 1b; standard or modified assay not specified
T1 construct: The protein was expressed with an 18 amino acid C-terminal truncation to enhance the solubility; made in house; host or cells: E. coli BL21(DE3)
T1 sequence (Q9WMX2 2420-2992): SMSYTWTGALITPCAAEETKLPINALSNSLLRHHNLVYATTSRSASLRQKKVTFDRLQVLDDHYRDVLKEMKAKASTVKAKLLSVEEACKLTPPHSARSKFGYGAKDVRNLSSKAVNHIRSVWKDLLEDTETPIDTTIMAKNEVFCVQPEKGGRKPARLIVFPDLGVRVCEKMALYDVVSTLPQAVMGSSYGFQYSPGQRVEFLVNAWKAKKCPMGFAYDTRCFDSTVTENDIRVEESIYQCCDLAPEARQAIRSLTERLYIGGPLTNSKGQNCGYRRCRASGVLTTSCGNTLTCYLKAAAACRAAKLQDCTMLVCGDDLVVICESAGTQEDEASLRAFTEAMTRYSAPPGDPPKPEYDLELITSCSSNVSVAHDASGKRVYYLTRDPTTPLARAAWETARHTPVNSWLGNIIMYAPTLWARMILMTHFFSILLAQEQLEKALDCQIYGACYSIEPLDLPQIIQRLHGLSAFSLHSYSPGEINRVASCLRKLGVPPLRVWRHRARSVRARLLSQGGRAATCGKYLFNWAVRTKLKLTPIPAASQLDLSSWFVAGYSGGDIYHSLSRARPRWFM
Experimental: HCV NS5B RdRp cloning, expression, and purification. The cDNA encoding the NS5B protein of HCV, genotype 1b, was cloned into the pET21a expression vector. The protein was expressed with an 18 amino acid C-terminal truncation to enhance the solubility. The E. coli competent cell line BL21(DE3) was used for expression of the protein. Cultures were grown at 37° C. for ˜4 hours until the cultures reached an optical density of 2.0 at 600 nm. The cultures were cooled to 20° C. and induced with 1 mM IPTG. Fresh ampicillin was added to a final concentration of 50 μg/ml and the cells were grown overnight at 20° C.
Cell pellets (3 L) were lysed for purification to yield 15-24 mgs of purified NS5B. The lysis buffer consisted of 20 mM Tris-HCl, pH 7.4, 500 mM NaCl, 0.5% triton X-100, 1 mM DTT, 1 mM EDTA, 20% glycerol, 0.5 mg/ml lysozyme, 10 mM MgCl2, 15 ug/ml deoxyribonuclease I, and Complete TM protease inhibitor tablets (Roche). After addition of the lysis buffer, frozen cell pellets were resuspended using a tissue homogenizer. To reduce the viscosity of the sample, aliquots of the lysate were sonicated on ice using a microtip attached to a Branson sonicator. The sonicated lysate was centrifuged at 100,000×g for 1 hr at 4° C. and filtered through a 0.2 μm filter unit (Corning).
The protein was purified using three sequential chromatography steps: Heparin sepharose CL-6B, polyU sepharose 4B, and Hitrap SP sepharose (Pharmacia). The chromatography buffers were identical to the lysis buffer but contained no lysozyme, deoxyribonuclease I, MgCl2 or protease inhibitor and the NaCl concentration of the buffer was adjusted according to the requirements for charging the protein onto the column. Each column was eluted with a NaCl gradient which varied in length from 5-50 column volumes depending on the column type. After the final chromatography step, the resulting purity of the enzyme is >90% based on SDS-PAGE analysis. The enzyme was aliquoted and stored at −80° C.
Standard HCV NS5B RdRp enzyme assay. HCV RdRp genotype 1b assays were run in a final volume of 60 μl in 96 well plates (Costar 3912). The assay buffer is composed of 20 mM Hepes, pH 7.5, 2.5 mM KCl, 2.5 mM MgCl2, 1 mM DTT, 1.6 U RNAse inhibitor (Promega N2515), 0.1 mg/ml BSA (Promega R3961), and 2% glycerol. All compounds were serially diluted (3-fold) in DMSO and diluted further in water such that the final concentration of DMSO in the assay was 2%. HCV RdRp genotype 1b enzyme was used at a final concentration of 28 nM. A polyA template was used at 6 nM, and a biotinylated oligo-dT12 primer was used at 180 nM final concentration. Template was obtained commercially (Amersham 27-4110). Biotinylated primer was prepared by Sigma Genosys. 3H-UTP was used at 0.6 μCi (0.29 μM total UTP). Reactions were initiated by the addition of enzyme, incubated at 30° C. for 60 min, and stopped by adding 25 μl of 50 mM EDTA containing SPA beads (4 μg/μl, Amersham RPNQ 0007). Plates were read on a Packard Top Count NXT after >1 hr incubation at room temperature.
Modified HCV NS5B RdRp enzyme assay. A modified enzyme assay was performed essentially as described for the standard enzyme assay except for the following: The biotinylated oligo dT12 primer was precaptured on streptavidin-coated SPA beads by mixing primer and beads in assay buffer and incubating at room temperature for one hour. Unbound primer was removed after centrifugation. The primer-bound beads were resuspended in 20 mM Hepes buffer, pH 7.5 and used in the assay at final concentrations of 20 nM primer and 0.67 μg/μl beads. Order of addition in the assay: enzyme (14 nM) was added to diluted compound followed by the addition of a mixture of template (0.2 nM), 3H-UTP (0.6 μCi, 0.29 μM), and primer-bound beads, to initiate the reaction; concentrations given are final. Reactions were allowed to proceed for 4 hours at 30° C.
IC50 values for compounds were determined using seven different [I]. […]

CNC(=O)c1c(-c2ccc(F)cc2)oc2ccc(-c3cc(C(=O)NC4(c5ccc6[nH]ccc6n5)CC4)ccc3C)c(F)c12
EC50 (HCV replicon): 7 nM
IC50 (HCV NS5B): 20 nM

CNC(=O)c1c(-c2ccc(F)cc2)oc2ccc(-c3cc(C(=O)NC4(c5nccc6[nH]ccc56)CC4)ccc3C)c(F)c12
EC50 (HCV replicon): 60 nM

CNC(=O)c1c(-c2ccc(F)cc2)oc2ccc(-c3cc(C(=O)NC4(c5ccc6cccnc6n5)CC4)ccc3C)cc12
EC50 (HCV replicon): 40 nM
IC50 (HCV NS5B): 3 nM

CNC(=O)c1c(-c2ccc(F)cc2)oc2ccc(-c3cc(C(=O)NC4(c5ccc6ccncc6n5)CC4)ccc3C)cc12
EC50 (HCV replicon): 3 nM
IC50 (HCV NS5B): 5 nM

CNC(=O)c1c(-c2ccc(F)cc2)oc2ccc(-c3cc(C(=O)NC4(c5ccc6ccncc6n5)CC4)ccc3C)c(F)c12
EC50 (HCV replicon): 6 nM
IC50 (HCV NS5B): 20 nM

CNC(=O)c1c(-c2ccc(F)cc2)oc2ccc(-c3cc(C(=O)NC4(c5ccc6cnccc6n5)CC4)ccc3C)cc12
EC50 (HCV replicon): 2 nM
IC50 (HCV NS5B): 8 nM

CNC(=O)c1c(-c2ccc(F)cc2)oc2ccc(-c3cc(C(=O)NC4(c5ccc6ccncc6n5)CC4)cc(F)c3C)c(F)c12
EC50 (HCV replicon): 9 nM
IC50 (HCV NS5B): 10 nM

CNC(=O)c1c(-c2ccc(F)cc2)oc2ccc(-c3cc(C(=O)NC4(c5ccc6cccnc6n5)CC4)cc(F)c3C)c(F)c12
EC50 (HCV replicon): 70 nM
IC50 (HCV NS5B): 10 nM

CNC(=O)c1c(-c2ccc(F)cc2)oc2ccc(-c3cc(C(=O)NC4(c5ccc6cnccc6n5)CC4)cc(F)c3C)c(F)c12
EC50 (HCV replicon): 6 nM
IC50 (HCV NS5B): 7 nM

CNC(=O)c1c(-c2ccc(F)cc2)oc2ccc(-c3cc(C(=O)NC4(c5ccc6ncccc6n5)CC4)ccc3C)c(F)c12
EC50 (HCV replicon): 30 nM
IC50 (HCV NS5B): 10 nM

CNC(=O)c1c(-c2ccc(F)cc2)oc2ccc(-c3cc(C(=O)NC4(c5ccc6ncccc6n5)CC4)ccc3C)cc12
EC50 (HCV replicon): 30 nM
IC50 (HCV NS5B): 10 nM

CNC(=O)c1c(-c2ccc(F)cc2)oc2ccc(-c3cc(C(=O)NC4(c5ccc6ccncc6n5)CC4)c(OC)cc3OCC(N)=O)cc12
EC50 (HCV replicon): 4 nM
IC50 (HCV NS5B): 5 nM

CNC(=O)c1c(-c2ccc(F)cc2)oc2ccc(-c3cc(C(=O)NC4(c5ncc6cnccc6n5)CC4)ccc3C)c(F)c12
EC50 (HCV replicon): 20 nM
IC50 (HCV NS5B): 6 nM

CNC(=O)c1c(-c2ccc(F)cc2)oc2ccc(-c3cc(C(=O)NC4(c5nc6cnccc6o5)CC4)ccc3C)c(F)c12
EC50 (HCV replicon): 4 nM
IC50 (HCV NS5B): 20 nM

CNC(=O)c1c(-c2ccc(F)cc2)oc2ccc(-c3cc(C(=O)NC4(c5nc6cnccc6o5)CC4)c(OC)cc3C)c(F)c12
EC50 (HCV replicon): 1 nM
IC50 (HCV NS5B): 40 nM

CNC(=O)c1c(-c2ccc(F)cc2)oc2ccc(-c3cc(C(=O)NC4(c5nc6cnccc6o5)CC4)ccc3C)cc12
EC50 (HCV replicon): 1 nM
IC50 (HCV NS5B): 20 nM

CNC(=O)c1c(-c2ccc(F)cc2)oc2ccc(-c3cc(C(=O)NC4(c5nc6cnccc6o5)CC4)c(OC)cc3C)cc12
EC50 (HCV replicon): 1 nM
IC50 (HCV NS5B): 10 nM

CNC(=O)c1c(-c2ccc(F)cc2)oc2ccc(-c3cc(C(=O)N[C@@H](C)c4nc5cnccc5o4)c(OC)cc3C)c(F)c12
EC50 (HCV replicon): 20 nM
IC50 (HCV NS5B): 60 nM

CNC(=O)c1c(-c2ccc(F)cc2)oc2ccc(-c3cc(C(=O)N[C@H](C)c4nc5cnccc5o4)c(OC)cc3C)c(F)c12
EC50 (HCV replicon): 10 nM
IC50 (HCV NS5B): 40 nM

CNC(=O)c1c(-c2ccc(F)cc2)oc2ccc(-c3cc(C(=O)NC4(c5nc6ccncc6o5)CC4)c(OC)cc3C)c(F)c12 [4-fluoro-2-(4-fluorophenyl)-5-(4-methoxy-2-methyl-5-(1-(oxazolo[5,4-c]pyridin-2-yl)cyclopropylcarbamoyl)phenyl)-N-methylbenzofuran-3-carboxamide]
EC50 (HCV replicon): 4 nM
IC50 (HCV NS5B): 20 nM

CNC(=O)c1c(-c2ccc(F)cc2)oc2ccc(-c3cc(C(=O)NC4(c5nc6cnccc6o5)CC4)cc(F)c3C)c(F)c12 [4-fluoro-5-(3-fluoro-2-methyl-5-(1-(oxazolo[4,5-c]pyridin-2-yl)cyclopropylcarbamoyl)phenyl)-2-(4-fluorophenyl)-N-methylbenzofuran-3-carboxamide]
EC50 (HCV replicon): 6 nM
IC50 (HCV NS5B): 20 nM

Source: US8354410B2 (Bristol-Meyers Squibb Company, priority 2010, dated 2013)
